# Reference: patent US11013228B2, “Method of processing allograft skin for transplantation, and cryopreserved allograft skin produced thereby” (CG BIO CO., LTD., priority 2009, dated 2021)
# “And” between values parts separate entries of the source, which are not always exact repeats. Identical values can stand only once.
# Tested on: pig skin
# Assay: TUNEL assay, cell death rate according to sucrose concentration in the cryoprotectant
# Format: cell-based
# Settings: for cell death rate, AVE: average of 6 samples
# Experimental: Because human skin tissue harvested from a donor (cadaver) is prohibited from being used in an experiment, pig skin—which is the closest to human skin—is used for preparing ten (10) of both cryopreserved skins and glycerol-preserved skins according to the following methods of Example and Comparative Example. To investigate the change of the cell death rate according to the difference of sucrose concentration, the cryopreserved allograft skin was prepared by the same method as in the Example except that the sucrose concentration in the cryoprotectant was 5, 10, 15, 20, 25, 30, 35 and 40 wt %, and it was then analyzed by TUNEL assay. TUNEL assay was carried out by using an In Situ Cell Death Detection Kit, Fluorescein (Roche, Germany) according to the manufacturer's instructions, and 4′,6-diamidino-2-phenylindole (DAPI) was used as a fluorescent marker. The results of cell death rate are shown in the following Table 1, and represented in FIG. 6 as a graph.
smiles,measurement,setting,value
"OC[C@H]1O[C@@](CO)(O[C@H]2O[C@H](CO)[C@@H](O)[C@H](O)[C@H]2O)[C@@H](O)[C@@H]1O [Sucrose, sucrose]",cell death rate,"sucrose 25 to 40 wt % in the final concentration, Table 1 and FIG. 6",quite low
same,"cell death rate, AVE",sucrose conc. 5 wt % in cryoprotectant,48%
same,cell death rate,"sucrose conc. 5 wt % in cryoprotectant, individual samples n 1-6",65% and 45% and 36% and 64% and 39% and 41%
same,"cell death rate, AVE",sucrose conc. 10 wt % in cryoprotectant,47%
same,cell death rate,"sucrose conc. 10 wt % in cryoprotectant, individual samples n 1-6",26% and 49% and 55% and 57% and 56% and 41%
same,"cell death rate, AVE",sucrose conc. 15 wt % in cryoprotectant,41%
same,cell death rate,"sucrose conc. 15 wt % in cryoprotectant, individual samples n 1-6",25% and 31% and 22% and 47% and 57% and 66%
same,"cell death rate, AVE",sucrose conc. 20 wt % in cryoprotectant,35%
same,cell death rate,"sucrose conc. 20 wt % in cryoprotectant, individual samples n 1-6",43% and 35% and 21% and 22% and 23% and 68%
same,"cell death rate, AVE",sucrose conc. 25 wt % in cryoprotectant,28%
same,cell death rate,"sucrose conc. 25 wt % in cryoprotectant, individual samples n 1-6",19% and 23% and 28% and 64% and 12% and 20%
same,"cell death rate, AVE",sucrose conc. 30 wt % in cryoprotectant,20%
same,cell death rate,"sucrose conc. 30 wt % in cryoprotectant, individual samples n 1-6",20% (2×) and 23% and 39% and 11% and 5%
same,"cell death rate, AVE",sucrose conc. 35 wt % in cryoprotectant,23%
same,cell death rate,"sucrose conc. 35 wt % in cryoprotectant, individual samples n 1-6",30% and 25% and 10% and 23% and 28% and 21%
same,"cell death rate, AVE",sucrose conc. 40 wt % in cryoprotectant,28%
same,cell death rate,"sucrose conc. 40 wt % in cryoprotectant, individual samples n 1-6",13% and 36% and 33% and 41% and 26% and 20%
